What all share (test): NCI anticancer screen, dose series, 48 h
The subject of assay [1] is HCT-116 colon.
Assay [2] relates to HOP-62 NSCLC.
The test system of assay [3] is KM12 colon.
The subject of assay [4] is LOX IMVI melanoma.
In assay [5] the test system is LXFL 529 NSCLC.
For assay [6], the system named is SK-OV-3 ovarian.
Assay [7] concerns SNB-78 CNS.
For assay [8], the system named is TK-10 renal.
For assay [9], the system named is DMS 114 small cell lung.
Assay [10] has as its system PC-3 prostate.

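The compound was tested at five concentrations on cells cultured in 96-well plates, with a 48-hour exposure period. GI50 marks 50% less growth. The concentration for full growth arrest is given as TGI.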

For the compound `CCCCCCCC(=O)OCC1OC(n2cc(F)c(=O)[nH]c2=O)C(N)C(OC(=O)CCCCCCC)C1O` (configuration not stated), the TGI in assay [1] was determined as 34.6 µM; in assay [2], 32.5 µM; in assay [3] it was 42.3 µM; in assay [4] it was 32.5 µM; in assay [5], 30.9 µM; in assay [6] it was 93.8 µM. The TGI in [7] was 39.5 µM; in assay [8], 56.9 µM.
Consider `CCC(C)(C)n1c(C)nc2c1C(=O)c1ccccc1C2=O`, for which the TGI in assay [1] was 35.8 µM; in assay [2] it was above 100 µM; in [3] it was above 100 µM; in assay [4], 47.3 µM; in [5], above 100 µM; in [6], above 100 µM. For the same compound, the TGI in assay [7] and in [8] was above 100 µM throughout.
Turning to `C[N+](C)(C)CC(=O)N/N=C(/Cc1cc(=O)oc2cc(O)ccc12)C(=O)Nc1ccc(Cl)cc1`, the TGI in assay [9], in assay [1], in assay [2], in [3], in assay [6] and in [8] was above 100 µM in each case.
In the case of `NC(=O)c1cc(I)ccc1NC(=O)/C=C/c1ccccc1`, the GI50 in assay [1] was 0.475 µM; in assay [2] it was 1.12 µM; in [3], 0.41 µM; in [4], 3.18 µM; in [10], 0.605 µM; in assay [6], 0.604 µM. In addition, the GI50 in assay [8] is 2.9 µM. Moreover, the TGI in [1] was above 40.3 µM; in assay [2], 23.8 µM; in assay [3], above 37.4 µM; in [4] it was above 100 µM; in assay [10], above 100 µM; in assay [6], 12.8 µM. The compound also had a TGI in assay [8] of 44.1 µM.
As to `COc1c(C)c(OCC=C(C)C)cc(CO)c1CO`, the TGI in assay [1], in assay [2], in assay [3], in assay [4], in [10] and in [6] was above 100 µM each time. Further, the TGI in [8] was above 100 µM.
As for `O=C(Nc1nc(-c2c[nH]c3ccccc23)cs1)c1n[nH]c(=O)c2ccccc12`, the GI50 is 0.368 µM in [1]; 3.72 µM in assay [2]; 1.76 µM in [3]; 0.644 µM in assay [4]; 10.2 µM in assay [10]; 12.6 µM in assay [6]. Also, the GI50 in assay [8] was 14.4 µM. Moreover, the TGI is above 44.5 µM in [1]; 26.6 µM in assay [2]; above 100 µM in [3]; 17.9 µM in assay [4]; above 100 µM in assay [10]; above 100 µM in assay [6]. In assay [8], this compound came in with a TGI above 100 µM.
For `CNCCCNc1ccnc2cc(Cl)ccc12`, the GI50 in [1] is 11.2 µM; in [2], 22.4 µM; in assay [3], 19.4 µM; in [4] it was 16.8 µM; in assay [10] it was 17.9 µM; in [6] it was 21.9 µM. Further, the GI50 in [8] is 18 µM. In addition, the TGI is 41.4 µM in assay [1]; above 100 µM in assay [2]; 67.6 µM in assay [3]; 36.6 µM in assay [4]; 57 µM in assay [10]; 60.8 µM in assay [6]. Besides, in assay [8], the TGI was 54.4 µM.
In the case of `CCOc1ccc(NC(=O)CC2SC(=Nc3ccc(C)cc3C)NC2=O)cc1` (configuration not stated), the TGI in assay [1], in assay [4], in [5], in assay [7] and in [8] was above 100 µM throughout.
As for `Nc1c(C(=O)Nc2ccccn2)sc2nc3c(cc12)C(=O)CCC3`, the GI50 was 0.52 µM in assay [1]; 1.75 µM in assay [2]; 0.762 µM in assay [3]; 4.18 µM in [4]; 1.43 µM in assay [10]; 1.41 µM in assay [6]. Moreover, the GI50 in assay [8] was 22.3 µM. Besides, the TGI in assay [1], in assay [2], in [3], in assay [4], in assay [10] and in [6] was above 100 µM throughout. In assay [8], this compound returned a TGI above 100 µM.
On to `O=C(Nc1ncc(Cc2cccc(C(F)(F)F)c2)s1)c1ccc2c(c1)OCCO2`, for which the GI50 in [1] is 0.32 µM; in assay [2], 0.615 µM; in assay [3], 0.196 µM; in assay [4] it was 0.565 µM; in [10] it was 0.341 µM; in assay [6], 0.746 µM. Moreover, the GI50 in assay [8] was 0.892 µM. The TGI in assay [1] is above 100 µM; in assay [2] it was above 40.9 µM; in assay [3], above 100 µM; in assay [4] it was above 100 µM; in assay [10], above 100 µM; in assay [6], 46.6 µM. The same compound returned a TGI in assay [8] above 39.2 µM.
For the compound `Cc1nc2sccn2c1-c1nc2sccn2c1/C=C1/C(=O)Nc2ccccc21`, the GI50 is 3.3 µM in [1]; 3.61 µM in assay [2]; 1.76 µM in assay [3]; 3.01 µM in assay [4]; 2.32 µM in [10]; 2.4 µM in [6]. Also, the GI50 in assay [8] was 13.5 µM. Also, the TGI in assay [1] was 30 µM; in assay [2] it was above 100 µM; in assay [3], 14.6 µM; in [4] it was above 100 µM; in [10], 46.4 µM; in assay [6], 15.4 µM. The same compound displayed a TGI in assay [8] above 100 µM.
On to `COc1nc(=O)n(C2C=CC(=O)O2)cc1F` (configuration not stated), for which the GI50 in assay [1] is 2.05 µM; in [2], 29.7 µM; in [3] it was 11.7 µM; in assay [4], 10.9 µM; in [10], 19.8 µM; in [6], 25.8 µM. Besides, the GI50 in [8] was 2.64 µM. Moreover, the TGI stood at 4.81 µM in [1]; 81.2 µM in assay [2]; 23.9 µM in [3]; 22.9 µM in assay [4]; 62.4 µM in [10]; 62.3 µM in [6]. Moreover, the TGI in assay [8] worked out at 12.2 µM.

(Values after PubChem BioAssay (NCI).)
